Assay results as given in a melting point compilation (Tetko et al.; mined from patent text by program, amines drawn as free bases though some values may be those of a salt).

Structure (SMILES) | melting point [°C]
OCCOc1ccc(O)c(Cl)c1 | 76 to 82
C[Si](C)(C)Sc1nnnn1-c1ccccc1 | 67 to 68
c1ccc(CCc2[nH]ncc2-c2ccncc2)cc1 | 125 to 131
CC(/C=C/c1sccc1-c1cc2c(cc1C)C(C)(C)CCC2(C)C)=C\C(=O)O | 208 to 209
CC(C)n1cc(C(=O)O)c(=O)c2cc(F)c(F)c(F)c21 | 256 to 260
CC(C)CCC1CCCCCc2c1oc(=O)c(C(c1ccccc1)C1CC1)c2O (centres undefined) | 83 to 88
Cn1ccnc1Sc1ccc(F)cc1[N+](=O)[O-] | 123 to 126
N#CCCN1C(=O)C(O)N=C(c2ccccc2Cl)c2cc(Cl)ccc21 (centres undefined) | 198 to 202
O=C(O)c1ccc(N(CCCc2ccc(Cl)cc2)CCCc2ccc(Cl)cc2)cc1 | 128 to 131
CC(C)(C)OC(=O)N1C[C@@H]2[C@H](C1)C(F)(F)CCC2(c1ccccc1)c1ccccc1 (racemic) | 162
COCCc1cc(O)ccc1N | 82
CCCSc1sc(C(=O)OCC)c2c1-c1nn(C)cc1CC2 | 90 to 91
Cc1oc(-c2ccccc2)nc1COc1ccc(COc2ncccc2CC#N)cn1 | 110 to 111
N#CNc1ncc(-c2ccncc2)cn1 | > 300
CCNC(=S)NC1CCCCc2sccc21 (centres undefined) | 117 to 120
C=Cc1cnc(C)c(O)c1CS | 198 to 200
COC1=CC2=CCC3C(C(F)CC4(C)C(=O)CCC34)C2CC1 (centres undefined) | 173

Next, values leading:

melting point [°C] | Structure (SMILES)
96 to 98 | Cc1ccc2c(c1)C1(COc3cc4c(cc31)OCO4)C(=O)N2Cc1ccc(C(F)(F)F)o1 (centres undefined)
105 to 107 | O=C1C=CC(O)(c2cc3ccccc3o2)c2ccccc21 (centres undefined)
186 to 188 | CS(=O)(=O)c1ccc(-n2nc(C(F)(F)F)cc2-c2nc3cccc(F)c3s2)cc1
> 200 | CCc1nc(C)c(/C=C(\NC(=O)c2ccc(C(=O)NCc3cccc(O)c3)cc2Cl)C(=O)O)s1
97 to 109 | Cc1cccnc1-c1cccc(OC2SCC(O)C(O)C2O)c1 (centres undefined)
182 | Cc1cnc(COc2nn3c(-c4ccccc4)nnc3cc2-c2ccccc2)s1
182 to 188 | COC(=O)C1Cc2c(ncn2Cc2ccc(N)c(C)c2)CN1C(=O)C(c1ccccc1)c1ccccc1 (centres undefined)
60 to 65 | Cc1ccc(C(=O)N2CCC(CCN3C(=O)CCc4c(CC5SC(=O)NC5=O)cccc43)CC2)cc1 (centres undefined)
225 to 227 | COc1ccc(NC(=O)Nc2ccc(Cl)c(Cl)c2)cc1NS(=O)(=O)c1cc(Cl)cc(Cl)c1
182 | COc1ccc(C(=O)Nc2ccc3ccc(Oc4cccc(Cl)c4)nc3n2)cc1
155 | NS(=O)(=O)c1c(S)cccc1C(F)(F)F
212 to 218 | CN(CC(=O)O)C[C@@H]1CC(c2ccc(-c3ccc(N4C[C@H](Cn5ccnn5)OC4=O)cc3F)cn2)=NO1
134 | Cc1nc(NC(=O)c2cnn3c(C(F)F)cc(-c4ccc(C(F)(F)F)cc4)nc23)sc1S(=O)(=O)NCCO
200 to 201 | CC(C)n1nc(-c2sc(NC(=O)CCNCc3ccccn3)nc2-c2ccccc2)ccc1=O
118 to 121 | CNC(=O)C(=NOC)c1ccccc1Oc1cccc(-c2ccc(Cl)cc2)c1
149 to 151 | CCC(CC)c1ccc(C(F)(F)F)c2nc(Oc3c(C)cc(Cl)cc3Cl)n(C)c12
114 to 115 | Cc1ccc(-c2nc(Cc3cccc(CC(CO)CO)c3)c(C)o2)cc1
179 to 183 | CCONC(=O)c1cccc(-c2nc3ccccc3c(=O)o2)c1
106 to 108 | COC(=O)NCCCn1c(-c2ccc(OC)cc2)csc1=Nc1ccccc1
107 to 108 | N#CCCNC(=O)c1cccc(-c2cccc3oc(Cc4cccc(C(F)(F)F)c4)cc23)c1
205 to 206 | COc1cc2c3ccc(OC)c(OC)c3n(S(=O)(=O)c3ccccc3)c2cc1OC
185 to 187 | O=C(c1ccco1)c1cnn2c(-c3ccccc3)ccnc12
